Measurements from patent US20240166643A1, “IMIDAZO[1,2-A]PYRIDINE COMPOUNDS AND THEIR USE IN THERAPY” (Imperial College Innovations Limited, priority 2020, published 2024).

What was measured:
[1] = test system: BL-41 cells; assay: Metabolic activity assay (MTS assay) in BL-41 cell line; type: cell-based; conditions: Homo sapiens, 72 h
[2] = test system: SU-DHL-10 cells; assay: Cell cytotoxicity in SU-DHL-10 cell line (CellTiter-Glo); type: cell-based; conditions: Homo sapiens, SU-DHL10; CellTiter-Glo, 48 h; read-out: SU-DHL-10 EC50
[3] = test system: BL-41 cells; assay: CellTiter-Blue assay, BL-41; type: cell-based; conditions: Homo sapiens, BL41 cell line, 72 hours
Procedure: (§1) Assay (d): CellTiter-Blue® Assay
(§2) BL-41, Ramos, Raji and A20 cells (obtained from Cell Services at the Crick Institute; cell type of BL-41, Ramos, Raji: Burkitt's Lymphoma; cell type of A20: murine B cell lymphoma cell line) were grown in RPMI-1640 media in 5% CO2 (supplemented with 10% FBS). The cells were seeded in 96-well plates, 24 h prior to treatment. Cell suspensions were prepared by adjusting the cell density to the appropriate concentration (as stated in the Table 9 below) and 50 μL of the cell suspension was transferred to wells B-G in columns 2-11 of a 96-well plate. […]
(§3) 72 hours later, 20 μl/well CellTiter-Blue® (G8081, Promega) were added to the plates according to the manufacturer's protocol, the plate was incubated at 37° C. for 2 or 3-4 h (A20, Ramos and Raji: 2 h; BL-41 and EL-4: 3-4 h), followed by measuring the absorbance per well at 570 nm using an EnVision plate reader. […] The metabolic activity was calculated as a percentage relative to the positive control. The EC50 values were calculated using GraphPad Prism.

[4] = test system: EL4 cells; assay: CellTiter-Blue assay, EL4; type: cell-based; conditions: EL4 cell line, 72 hours
Procedure: as §1
Cell suspensions were prepared by adjusting the cell density to the appropriate concentration (as stated in the Table 10 below) and 50 μL of the cell suspension was transferred to wells B-G in columns 2-11 of a 96-well plate.
For each the BL-41, Ramos, Raji, A20 cell lines and EL4, twenty-four hours later, 50 μL of the growth media for the respective cell line (positive control), a mix of Puromycin and Staurosporine (negative controls, final concentration 10 μg/mL and 1 μM respectively) or different concentrations of each Example compound being tested (dilution factor=3, starting at μM, final concentration in the plate starting from 10 μM) were prepared and added to a well of the 96-well plate. The plate was incubated at 37° C. with 5% CO2 level.
72 hours later, 20 μl/well CellTiter-Blue® (G8081, Promega) were added to the plates according to the manufacturer's protocol, the plate was incubated at 37° C. for 2 or 3-4 h (A20, Ramos and Raji: 2 h; BL-41 and EL-4: 3-4 h), followed by measuring the absorbance per well at 570 nm using an EnVision plate reader. The negative control values were subtracted from every value. The metabolic activity was calculated as a percentage relative to the positive control. The EC50 values were calculated using GraphPad Prism.

[5] = test system: Ramos cells; assay: CellTiter-Blue assay, Ramos; type: cell-based; conditions: Homo sapiens, Ramos cell line, 72 hours
Procedure: as §1, §2, §3

[6] = test system: Raji cells; assay: CellTiter-Blue assay, Raji; type: cell-based; conditions: Homo sapiens, Raji cell line, 72 hours
Procedure: as §1, §2, §3

[7] = test system: A20 cells; assay: CellTiter-Blue assay, A20; type: cell-based, murine; conditions: Mus musculus, A20 cell line, 72 hours
Procedure: as §1, §2, §3

[8] = Rat clearance and bioavailability (iv and oral dosing); type: in vivo; conditions: male, Sprague-Dawley, plasma, administered as a single compound
[9] = test system: Plasmodium falciparum 3D7; assay: SYBR Green assay, Plasmodium falciparum strain 3D7; type: cell-based; conditions: P. falciparum strain 3D7, 96 h incubation, read-out: Pf EC50 strain 3D7
[10] = test system: DOHH-2 tumor cells; assay: Mouse xenograft, subcutaneous DOHH-2 Lymphoma Model; type: in vivo; conditions: compared to vehicle
Procedure: Assay (i): Mouse Xenograft Protocol
The in vivo efficacy was assess in a subcutaneous xenograft DOHH-2 Lymphoma Model using Female 6-8 week old CB17/SCID Mice. […] The test compound administration started once the mean tumor size reached approximately 100-150 mm3. Compounds were administered either IP (vehicle 58% Na2HPO4 buffer (10 mM) (pH4.5)+40% PEG400+2% DMSO) or orally (vehicle Na2HPO4 buffer (10 mM) (pH 4.5)+0.2% tween 80). Tumor volumes were measured in two dimensions using a caliper, and the volume expressed in mm3 using the formula: V=(L×W×W)/2, where V is tumor volume, L is tumor length (the longest tumor dimension) and W is tumor width (the longest tumor dimension perpendicular to L).
Mice were dosed with Example 2 orally (50 mg/kg) once a day for 9 consecutive days (FIG. 5a), or Example 2 was dosed intraperitonally (25 mg/kg) in a cycle consisting of administration twice a day for three days followed by a four day no-dosing period (FIG. 5b). The cycle was repeated three times.
Mice were dosed with Example 129 intraperitonally (25 mg/kg) in a cycle consisting of administration twice a day for three days followed by a four day no-dosing period (Figure Sc). The cycle was repeated three times.
The protocol and any amendment(s) or procedures involving the care and use of animals in this study were reviewed and approved by the Institutional Animal Care and Use Committee (IACUC) of CrownBio prior to execution. During the study, the care and use of animals was conducted in accordance with the regulations of the Association for Assessment and Accreditation of Laboratory Animal Care (AAALAC).

[11] = in vitro; conditions: male, Sprague-Dawley, rat, pooled cryopreserved rat hepatocytes, pH 7.4
[12] = target: Human NMT1 (HsNMT1) (Homo sapiens, UniProt P30419); assay: biochemical
[13] = target: Plasmodium vivax (Pv) NMT (Plasmodium vivax (strain Salvador I), UniProt A5K1A2); assay: biochemical
[14] = target: Plasmodium falciparum NMT (Plasmodium falciparum (isolate 3D7), UniProt Q8ILW6); conditions: cited from earlier work

Chain of Plasmodium vivax (Pv) NMT (A5K1A2 1-410): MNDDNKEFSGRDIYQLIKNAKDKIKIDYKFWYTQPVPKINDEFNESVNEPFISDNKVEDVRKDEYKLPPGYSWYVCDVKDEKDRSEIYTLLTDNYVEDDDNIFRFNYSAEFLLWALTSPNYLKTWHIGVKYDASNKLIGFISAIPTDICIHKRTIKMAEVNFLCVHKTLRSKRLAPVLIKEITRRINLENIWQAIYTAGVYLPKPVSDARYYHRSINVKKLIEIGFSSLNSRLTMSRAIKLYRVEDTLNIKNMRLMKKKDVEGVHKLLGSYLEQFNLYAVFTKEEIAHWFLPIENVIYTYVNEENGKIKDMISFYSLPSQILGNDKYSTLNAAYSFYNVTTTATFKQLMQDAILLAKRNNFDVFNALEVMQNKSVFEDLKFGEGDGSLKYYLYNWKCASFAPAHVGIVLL
Chain of Human NMT1 (HsNMT1) (P30419 whole entry, looked up): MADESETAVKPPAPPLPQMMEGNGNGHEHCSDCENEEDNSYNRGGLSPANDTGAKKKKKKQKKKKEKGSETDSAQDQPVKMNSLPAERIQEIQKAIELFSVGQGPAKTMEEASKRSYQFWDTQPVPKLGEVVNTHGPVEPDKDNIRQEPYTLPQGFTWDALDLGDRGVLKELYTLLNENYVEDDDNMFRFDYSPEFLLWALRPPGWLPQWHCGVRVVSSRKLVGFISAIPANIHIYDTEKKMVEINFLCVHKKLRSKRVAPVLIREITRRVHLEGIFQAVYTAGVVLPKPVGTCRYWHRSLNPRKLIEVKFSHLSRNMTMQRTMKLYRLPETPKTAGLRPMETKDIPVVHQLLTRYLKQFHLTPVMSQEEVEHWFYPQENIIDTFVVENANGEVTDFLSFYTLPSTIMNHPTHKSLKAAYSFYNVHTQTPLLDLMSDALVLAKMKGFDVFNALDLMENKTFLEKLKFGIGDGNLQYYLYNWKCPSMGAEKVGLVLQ

Row | SMILES | EC50 [1] [µM] | EC50 [2] [µM] | EC50 [3] [µM] | EC50 [4] [µM] | EC50 [5] [µM] | EC50 [6] [µM] | EC50 [7] [µM] | half-life ([8]; iv 1 mg/kg, read-out: Rat iv t1/2 (converted)) [h] | bioavailability ([8]; oral 10 mg/kg) [%] | EC50 [9] [µM] | tumour volume ([10]; intraperitoneally 25 mg/kg twice a day for three days then four day no-dosing, cycle repeated three times) | tumour volume ([10]; orally 50 mg/kg once a day for 9 consecutive days) | half-life at 1 µM [11] [h] | IC50 [12] [µM] | IC50 [13] [µM] | selective activity for Plasmodium falciparum NMT over both human NMTs [14]
1 | C[C@H]1CN(C)CCN1c1ncc(Cl)c(N2CC(C(=O)NC(C)(C)c3cnc4ccccn34)C2)n1 [Example 2, 1-(5-chloro-2-[(2S)-2,4-dimethylpiperazin-1-yl]pyrimidin-4-yl)-N-(2-{imidazo[1,2-a]pyridin-3-yl}propan-2-yl)azetidine-3-carboxamide] | 0.22 | 0.051 | 0.557 | 0.139 | 0.218 | 0.556 | 0.6 | 3.5 | 28 | 0.0024 | significant reduction in tumour volume | significant reduction in tumour volume | 1.52 | 0.0027 | 0.0041 | –
2 | Cc1cnc(CNC(=O)C2CN(c3nc(NCCN(C)C)ncc3Cl)C2)cn1 [PF-03531814, 1-(5-chloro-2-{[2-(dimethylamino)ethyl]amino}pyrimidin-4-yl)-N-[(5-methylpyrazin-2-yl)methyl]azetidine-3-carboxamide] | – | – | – | – | – | – | – | – | – | – | – | – | – | – | – | selective activity
